According to PMC6642116, “Structural and functional analyses of hepatitis B virus X protein BH3-like domain and Bcl-xL interaction” (Nature Communications, 2019):

Legend:
Assay type in all cases: cell-based
[1] = tested on: HBV in HepG2.2.15 cells; experiment: Inhibition of HBV in HepG2.2.15 cells by PEP-1 delivered peptides; conditions: for HBV DNA: HepG2.2.15 culture medium, peptide via PEP-1, 48 h; for HBsAg in culture medium: HepG2.2.15, peptide via PEP-1, 48 h
Experimental: (§1) Fig. 6 The HBx-aa118–127 peptide, but not ABT-263, inhibits HBV replication and transcription in HepG2.2.15 cells. a HepG2.2.15 cells were treated with 125, 250, 500, and 1000 nM of ABT-263 for 2 days. Cytoplasmic HBV viral particles were isolated and the viral DNA replication intermediates were quantified (Methods). The results represent the fold change of the replicative intermediates in HepG2.2.15 cells from the indicated treatments, compared with those without treatment. b HepG2.2.15 cells were treated with the indicated concentrations of ABT-263 for 2 days. The lysate was analyzed by immunoblotting using antibodies to caspase-3 (CASP3) and GAPDH (glyceraldehyde 3-phosphate dehydrogenase). c, d The HBx-aa113–135, HBx-aa118–127, or the control peptides were delivered into HepG2.2.15 cells using PEP-1 nanoparticles (Methods). The levels of HBV DNA (c) and the levels of HBV S-antigen (HBsAg) expression (d) in culture medium collected from HepG2.2.15 cells were measured (Methods). The results are shown as fold change compared to that of the control peptide. e–g HepG2-NTCP cells were transfected with HBx118–127 peptide with concentration of […], and 50 μg/ml or unrelated control peptide during HBV infection (multiplicity of infection (MOI) = 200), respectively. e HBV e-antigen (HBeAg), f HBV DNA, and g cell viability were measured at day 8 after HBV infection. Data shown represent mean ± SD. Significance is indicated on the top. Not significant (ns): *P < 0.05, **P < 0.01; two-tailed unpaired t tests (n = 3 biologically independent samples). Source data are provided as a Source Data file
To evaluate the potential inhibitory effects of peptides on HBV replication and transcription in HepG2.2.15 cells, HepG2.2.15 cells were pre-seeded 24 h before peptides treatment. HBx-aa113–135, HBx-aa118–127, or control peptide was transfected through pep-1 carriers and incubated for additional 48 h without the removal of peptides. The culture media of HepG2.2.15 cells were then harvested for analysis.
(§2) The levels of HBsAg, HBeAg, and HBcAg expression were measured by chemiluminescence, using Commercial Assay Kit (Wantai, Beijing, China). Northern blot analysis of HBV RNA, Southern blot analysis of HBV DNA, and real-time PCR quantification of HBV DNA are described in the Supplementary Methods.

[2] = tested on: HepG2-NTCP cells; experiment: Cell viability (CCK8 assay) of HBV-infected HepG2-NTCP cells; set-up: Cell viability: unit not given here; conditions: CCK8, unrelated control peptide, day 8
Experimental: as §1
HBx-aa118-127 peptide treatment.
obvious cytotoxicity at concentrations between 12.5-200 µg/mL (Fig. 6g). Taken together, […]

[3] = tested on: HBV in HepG2-NTCP cells; experiment: Inhibition of HBV infection in HepG2-NTCP cells by HBx118–127; conditions: unrelated control peptide, MOI 200, day 8
Experimental: We took advantage of the structural information of the HBx-aa113–135/Bcl-xL complex to develop potential HBV inhibitors. […] BH3-only mimetics, […] and ABT-737, were included as controls. […] We also used HBV-infected HepG2-NTCP cells to evaluate the inhibitory effect of the HBx-aa118–127 peptide on HBV replication, by treating the cells with the peptide at 12.5, 50, and 200 µg/ml concentrations, respectively.
Cytoplasmic HBV viral particles were isolated and the viral DNA replication intermediates were quantified (Methods). […] The lysate was analyzed by immunoblotting using antibodies to caspase-3 (CASP3) and GAPDH (glyceraldehyde 3-phosphate dehydrogenase). c, d The HBx-aa113–135, HBx-aa118–127, or the control peptides were delivered into HepG2.2.15 cells using PEP-1 nanoparticles (Methods). The levels of HBV DNA (c) and the levels of HBV S-antigen (HBsAg) expression (d) in culture medium collected from HepG2.2.15 cells were measured (Methods). […] Data shown represent mean ± SD. Significance is indicated on the top. Not significant (ns): *P < 0.05, **P < 0.01; two-tailed unpaired t tests (n = 3 biologically independent samples). Source data are provided as a Source Data file
as §2

Substance: SSTTSTGPCKTCTTPAQGTSMFP-K-biotin [Control, equal-length unrelated control biotin-labeled peptide]
- HBV DNA ([1]; replicate 1): 0.944 fold-change to control
- HBV DNA ([1]; replicate 2): 1.019 fold-change to control
- HBV DNA ([1]; replicate 3): 1.037 fold-change to control
- HBsAg in culture medium ([1]; replicate 1): 1.097 fold-change to control
- HBsAg in culture medium ([1]; replicate 2): 0.872 fold-change to control
- HBsAg in culture medium ([1]; replicate 3): 1.030 fold-change to control
- Cell viability ([2]; replicate 1): 102.557
- Cell viability ([2]; replicate 2): 97.209
- Cell viability ([2]; replicate 3): 100.234
- HBV DNA, HepG2-NTCP cell ([3]; replicate 1): 0.996 fold-change to control
- HBeAg, HepG2-NTCP cell ([3]; replicate 1): 1.091 fold-change to control
- HBV DNA, HepG2-NTCP cell ([3]; replicate 2): 0.822 fold-change to control
- HBeAg, HepG2-NTCP cell ([3]; replicate 2): 1.003 fold-change to control
- HBV DNA, HepG2-NTCP cell ([3]; replicate 3): 1.182 fold-change to control
- HBeAg, HepG2-NTCP cell ([3]; replicate 3): 0.906 fold-change to control
